Test results: publication PMC9544171, “Glucose‐dependent insulinotropic polypeptide receptor antagonist treatment causes a reduction in weight gain in ovariectomised high fat diet‐fed mice” (British Journal of Pharmacology, 2022)
Where a SMILES comes first, the peptide text is derived from it. The star is where a group is joined. C16 diacid = O=C(O)CCCCCCCCCCCCCCC(=O)*

Assays:
Type in all cases: cell-based
mouse GIP receptor [1] = biological target: T1, mouse GIP receptor (Mus musculus, UniProt Q0P543); assay: cAMP accumulation, antagonism of mouse GIP(1‐42) in transfected COS‐7 cells
T1 construct: host or cells: COS-7
T1 sequence (Q0P543 19-460): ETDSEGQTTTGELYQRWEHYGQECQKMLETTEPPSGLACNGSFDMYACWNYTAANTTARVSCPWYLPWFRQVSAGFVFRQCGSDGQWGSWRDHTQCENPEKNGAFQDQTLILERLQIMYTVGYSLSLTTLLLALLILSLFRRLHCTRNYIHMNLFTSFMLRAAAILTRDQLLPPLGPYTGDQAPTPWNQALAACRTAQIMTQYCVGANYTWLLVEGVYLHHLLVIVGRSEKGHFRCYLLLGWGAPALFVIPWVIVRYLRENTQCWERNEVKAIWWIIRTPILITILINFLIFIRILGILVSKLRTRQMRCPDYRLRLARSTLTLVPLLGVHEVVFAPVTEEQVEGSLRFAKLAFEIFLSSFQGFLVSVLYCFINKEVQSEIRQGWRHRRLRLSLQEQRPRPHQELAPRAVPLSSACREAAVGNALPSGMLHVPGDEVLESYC
Description: (§1) COS‐7 cells were cultured at 10% CO2 and 37°C in Dulbecco's Modified Eagle Medium 1885 supplemented with 10% foetal bovine serum, 2‐mM glutamine, 180‐units ml^−1 penicillin and […] streptomycin. Transient transfection of the cells with either human or mouse GIP receptor was performed using the calcium phosphate precipitation method as previously described (van der Velden et al., [2021]). A second set of cells was transiently transfected with either mouse GLP‐1 or GLP‐2 receptor. Following the day after transfection, the cells were seeded in white 96‐well plates with a density of 35.000 cells per well. The next day the assay was initiated by washing the cells with HEPES buffered saline (HBS) followed by an incubation step with HBS and 1‐mM 3‐isobutyl‐1‐methylxanthine for 30 min at 37°C. For agonist studies, the ligands were then added and incubated for an additional 30 min at 37°C. To test for antagonistic properties, the cells were first preincubated for 10 min with the antagonist with subsequent addition of the agonist and incubated for an additional 20 min. The HitHunter® cAMP assay (Eurofins DiscoverX, Fremont, USA) was carried out according to the manufacturer's protocol. Luminescence was measured by PerkinElmer™ Envision 2014 Multilabel Reader.
To facilitate comparisons of assay outputs (cAMP assays), the results (of duplicate measurements) were normalized, with the response to 10 pM of GIP(1‐42) set as 100%. All ligand concentrations are reported as log‐transformed. The IC50 log values can be found in Figure 1. In Figure 3c, we have subtracted glucose levels from baseline to show the net differences in glucose levels in our different treatment groups. […]
(§2) Results are presented as mean ± SE. Data were analysed with one‐way and two‐way analysis of variance (ANOVA) with Tukey's or Sidak multiple comparisons test and Student's unpaired t tests where appropriate. […] For the in vitro data IC50 values were determined by nonlinear regression using GraphPad Prism 9 (San Diego, California, USA). […]

human GIP receptor [2] = biological target: T2, human GIP receptor (Homo sapiens, UniProt P48546); assay: cAMP accumulation, agonism (intrinsic activity) in transfected COS‐7 cells; details: increasing concentrations of ligand alone, 30 min, COS‐7, n = 5
T2 construct: host or cells: COS-7
T2 sequence (P48546 22-466): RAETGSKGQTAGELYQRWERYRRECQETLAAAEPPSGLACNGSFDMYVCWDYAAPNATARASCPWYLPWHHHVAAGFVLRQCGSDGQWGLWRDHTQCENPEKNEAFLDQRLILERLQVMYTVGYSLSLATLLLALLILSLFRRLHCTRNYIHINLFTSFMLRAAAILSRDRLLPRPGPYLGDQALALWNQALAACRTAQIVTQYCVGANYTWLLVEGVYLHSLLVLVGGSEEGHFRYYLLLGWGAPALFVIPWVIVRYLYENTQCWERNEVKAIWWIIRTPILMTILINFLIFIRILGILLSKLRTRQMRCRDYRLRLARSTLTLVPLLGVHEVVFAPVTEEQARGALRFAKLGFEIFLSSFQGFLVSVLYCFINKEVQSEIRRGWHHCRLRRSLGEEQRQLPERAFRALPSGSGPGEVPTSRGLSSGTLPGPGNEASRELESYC
Description: as §1
(§3) To facilitate comparisons of assay outputs (cAMP assays), the results (of duplicate measurements) were normalized, with the response to 10 pM of GIP(1‐42) set as 100%. All ligand concentrations are reported as log‐transformed. The IC50 log values can be found in Figure 1. In Figure 3c, we have subtracted glucose levels from baseline to show the net differences in glucose levels in our different treatment groups.
(§4) FIGURE 1 In vitro signalling profile of mGIPAnt‐1 on the mouse and human glucose‐dependent insulinotropic polypeptide receptor/(GIPR). COS‐7 cells were transiently transfected with (a) mouse GIPR or (b) human GIPR and assayed for cAMP accumulation. To test for agonism, increasing concentration of the ligand was added. […]

mouse GIP receptor [3] = biological target: T1, mouse GIP receptor; assay: as above; details: increasing concentrations of ligand alone, 30 min, COS‐7, n = 5
Description: as §1, §3, §4

human GIP receptor [4] = biological target: T2, human GIP receptor; assay: cAMP accumulation, antagonism of human GIP(1‐42) in transfected COS‐7 cells; details: COS‐7 transiently transfected with human GIPR; 10 min preincubation with antagonist, then human GIP(1‐42) at 50%–80% of Emax for 20 min; HitHunter cAMP; Hill slope −1.0; n = 5 independent experiments; read-out: IC50, inhibition of hGIP‐induced cAMP accumulation, human GIPR
Description: as §1, with “To test for antagonistic properties, the cells were first preincubated for 10 min with the antagonist with subsequent addition of the agonist and incubated for an additional 20 min. The HitHunter® cAMP assay (Eurofins DiscoverX, Fremont, USA) was carried out according to the manufacturer's protocol.” left out, “Reader. […]” for “Reader.”
as §2

SMILES: CC[C@H](C)[C@H](NC(=O)[C@H](CO)NC(=O)[C@H](Cc1ccc(O)cc1)NC(=O)[C@H](CC(=O)O)NC(=O)[C@H](CO)NC(=O)[C@@H](NC(=O)[C@H](Cc1ccccc1)NC(=O)[C@@H](NC(=O)CNC(=O)[C@@H](N)CCC(=O)O)[C@@H](C)O)[C@@H](C)CC)C(=O)N[C@@H](C)C(=O)N[C@@H](CCSC)C(=O)N[C@@H](CC(=O)O)C(=O)N[C@@H](CCCCN)C(=O)N[C@H](C(=O)N[C@@H](CCCCNC(=O)CCCCCCCCCCCCCCC(=O)O)C(=O)N[C@@H](CCC(N)=O)C(=O)N[C@@H](CCC(N)=O)C(=O)N[C@@H](CC(=O)O)C(=O)N[C@@H](Cc1ccccc1)C(=O)N[C@H](C(=O)N[C@@H](CC(N)=O)C(=O)N[C@@H](Cc1c[nH]c2ccccc12)C(=O)N[C@@H](CC(C)C)C(=O)N[C@@H](CC(C)C)C(=O)N[C@@H](C)C(=O)N[C@@H](CCC(N)=O)C(=O)N[C@@H](CCCCN)C(=O)NCC(=O)N[C@@H](CCCCN)C(=O)N[C@@H](CCCCN)C(=O)N[C@@H](CC(N)=O)C(=O)N[C@@H](CC(=O)O)C(=O)N[C@@H](Cc1c[nH]c2ccccc12)C(=O)N[C@@H](CCCCN)C(=O)N[C@@H](Cc1c[nH]cn1)C(=O)N[C@@H](CC(N)=O)C(=O)O)C(C)C)[C@@H](C)CC [mGIPAnt‐1] (H-EGTFISDYSIAMDKIK(C16 diacid)QQDFVNWLLAQKGKKNDWKHN-OH)
- IC50 (mouse GIP receptor [1]; COS‐7 transiently transfected with mouse GIPR, 10 min preincubation with antagonist, then mouse GIP(1‐42) at 50%–80% of Emax for 20 min, HitHunter cAMP, Hill slope −1.0, n = 5 independent experiments, read-out: IC50, inhibition of mGIP‐induced cAMP accumulation, mouse GIPR): 269 nM
- potency relative to mGIP(3‐30)NH2 on the mouse GIP receptor (mouse GIP receptor [1]; ratio of IC50 813 nM / 269 nM): 3 fold
- intrinsic activity (activation of human GIP receptor, cAMP) (human GIP receptor [2]): no activation
- intrinsic activity (activation of mouse GIP receptor, cAMP) (mouse GIP receptor [3]): no activation
- IC50 (human GIP receptor [4]): 11 nM
